Assays:
Acetylcholinesterase [1] = molecular target: T1, Acetylcholinesterase (Homo sapiens, UniProt P22303); assay: Inhibition of human AChE
Acetylcholinesterase [2] = molecular target: T2, Acetylcholinesterase (Electrophorus electricus, UniProt O42275); assay: Inhibition of electric eel AChE
Cholinesterase [3] = molecular target: T3, Cholinesterase (Equus caballus, UniProt P81908); assay: Inhibition of equine serum BuChE
[4] = Ratio of IC50 for equine BuChE to IC50 for electric eel AChE
Acetylcholinesterase [5] = molecular target: T1, Acetylcholinesterase; assay: Inhibition of AChE (unknown origin) by Ellman's method
Cholinesterase [6] = molecular target: T4, Cholinesterase (Homo sapiens, UniProt P06276); assay: Inhibition of BuChE (unknown origin) by Ellman's method
[7] = molecular target: T5, Amyloid-beta precursor protein (Homo sapiens, UniProt P05067); assay: Inhibition of amyloid beta 1 to 42 (unknown origin) […]
[8] = molecular target: T6, Amine oxidase [flavin-containing] A (Homo sapiens, UniProt P21397); assay: Inhibition of MAO-A (unknown origin)
T6 sequence (P21397 whole entry): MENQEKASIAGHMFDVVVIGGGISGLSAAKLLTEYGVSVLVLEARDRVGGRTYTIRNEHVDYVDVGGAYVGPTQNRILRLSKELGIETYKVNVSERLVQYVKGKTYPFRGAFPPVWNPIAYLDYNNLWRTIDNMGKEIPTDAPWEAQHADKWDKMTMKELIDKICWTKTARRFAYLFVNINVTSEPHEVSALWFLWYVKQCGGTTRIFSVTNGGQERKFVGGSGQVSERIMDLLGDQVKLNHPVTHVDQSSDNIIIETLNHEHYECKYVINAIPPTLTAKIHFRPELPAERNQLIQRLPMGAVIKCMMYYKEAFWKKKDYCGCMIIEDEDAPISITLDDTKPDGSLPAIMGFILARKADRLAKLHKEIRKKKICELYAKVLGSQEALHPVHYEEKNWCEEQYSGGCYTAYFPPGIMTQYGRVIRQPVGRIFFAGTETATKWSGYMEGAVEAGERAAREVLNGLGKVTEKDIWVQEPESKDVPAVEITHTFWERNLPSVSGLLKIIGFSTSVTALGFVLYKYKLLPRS

Beta-secretase 1 [9] = molecular target: T7, Beta-secretase 1 (Homo sapiens, UniProt P56817); assay: Inhibition of recombinant human BACE1 in human SH-SY5Y cells using fluorogenic 7-methoxycoumarin-4-yl)acetyl-Ser-Glu-Val-Asn-Leu-Asp-Ala-Glu-Phe-ArgLys(2, 4-dinitrophenyl)-Arg-Arg-NH2 as substrate measured every 5 mins for 120 mins by WCA; assay type: cell-based
Beta-secretase 1 [10] = molecular target: T7, Beta-secretase 1; assay: Inhibition of recombinant human BACE1 using fluorogenic 7-methoxycoumarin-4-yl)acetyl-Ser-Glu-Val-Asn-Leu-Asp-Ala-Glu-Phe-ArgLys(2, 4-dinitrophenyl)-Arg-Arg-NH2 as substrate measured every 5 mins for 120 mins by CFA
SH-SY5Y [11] = assay: Cytotoxicity against human SH-SY5Y cells; assay type: functional, cell-based
Acetylcholinesterase [12] = molecular target: T2, Acetylcholinesterase; assay: Inhibition of electric eel AChE using acetylthiocholine incubated for 30 mins by measuring hydrolysis of substrate by Ellman's method
Cholinesterase [13] = molecular target: T4, Cholinesterase; assay: Inhibition of BuChE (unknown origin)
[14] = Inhibition of Kainate receptor (unknown origin); set-up: species or system Homo sapiens
Cholinesterase [15] = molecular target: T3, Cholinesterase; assay: Inhibition of equine serum BuChE incubated measured after 25 mins by spectrophotometric analysis; assay type: cell-free
[16] = Ratio of IC50 for electric eel AChE to ratio of IC50 for equine BuChE
[17] = Antioxidant activity assessed as radical scavenging incubated for 90 mins in dark DPPH assay; assay type: functional
[18] = Inhibition of PDE7 (unknown origin); set-up: species or system Homo sapiens
[19] = Antioxidant activity assessed as radical scavenging at 100 ug/ml by DPPH assay relative to control; assay type: functional
SH-SY5Y [20] = assay: Cytotoxicity against human SH-SY5Y cells assessed as cell viability at 100 uM relative to control; assay type: functional; details: read-out: Activity
Acetylcholinesterase [21] = molecular target: T1, Acetylcholinesterase; assay: Inhibition of AChE (unknown origin)
[22] = molecular target: T5, Amyloid-beta precursor protein; assay: Inhibition of amyloid beta 1 to 40 aggregation in human SH-SY5Y cells; assay type: cell-based
[23] = molecular target: T5, Amyloid-beta precursor protein; assay: Inhibition of amyloid beta 1 to 42 aggregation in human SH-SY5Y cells; assay type: cell-based
Acetylcholinesterase [24] = molecular target: T1, Acetylcholinesterase; assay: Inhibition of AChE (unknown origin) incubated for 20 mins by TLC analysis
Phosphodiesterase 4 = Phosphodiesterase 4 (Homo sapiens, UniProt P27815+Q08499+Q07343+Q08493); assay: Inhibition of PDE4 (unknown origin); assay type: protein assay
[25] = molecular target: 3',5'-cyclic-AMP phosphodiesterase 4D (Homo sapiens, UniProt Q08499); assay: Inhibition of PDE4D2 (unknown origin)
Beta-secretase 1 [26] = molecular target: T7, Beta-secretase 1; assay: Inhibition of BACE1 (unknown origin) incubated in dark for 90 mins by FRET assay
[27] = molecular target: Cyclin-dependent kinase 5 (Homo sapiens, UniProt Q00535); assay: Inhibition of CDK5 (unknown origin)
[28] = molecular target: Cyclin-dependent kinase 1 (Homo sapiens, UniProt P06493); assay: Inhibition of CDK1 (unknown origin)
[29] = molecular target: Glycogen synthase kinase-3 (Homo sapiens, UniProt P49840+P49841); assay: Inhibition of GSK3alpha/beta (unknown origin); assay type: protein assay

T7 sequence (P56817 whole entry): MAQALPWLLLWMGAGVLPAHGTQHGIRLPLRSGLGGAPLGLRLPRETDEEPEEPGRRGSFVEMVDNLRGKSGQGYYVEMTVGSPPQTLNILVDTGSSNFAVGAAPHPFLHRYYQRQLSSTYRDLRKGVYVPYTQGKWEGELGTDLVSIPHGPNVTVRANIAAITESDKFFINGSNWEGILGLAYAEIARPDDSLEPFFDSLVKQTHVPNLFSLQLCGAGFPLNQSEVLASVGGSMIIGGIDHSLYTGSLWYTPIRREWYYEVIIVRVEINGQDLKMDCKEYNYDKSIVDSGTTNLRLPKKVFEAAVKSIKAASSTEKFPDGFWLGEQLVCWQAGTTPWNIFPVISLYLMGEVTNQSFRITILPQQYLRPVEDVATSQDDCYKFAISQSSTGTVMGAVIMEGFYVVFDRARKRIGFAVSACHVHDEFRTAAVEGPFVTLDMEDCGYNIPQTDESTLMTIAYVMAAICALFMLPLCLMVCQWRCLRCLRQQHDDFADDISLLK
T4 sequence (P06276 whole entry): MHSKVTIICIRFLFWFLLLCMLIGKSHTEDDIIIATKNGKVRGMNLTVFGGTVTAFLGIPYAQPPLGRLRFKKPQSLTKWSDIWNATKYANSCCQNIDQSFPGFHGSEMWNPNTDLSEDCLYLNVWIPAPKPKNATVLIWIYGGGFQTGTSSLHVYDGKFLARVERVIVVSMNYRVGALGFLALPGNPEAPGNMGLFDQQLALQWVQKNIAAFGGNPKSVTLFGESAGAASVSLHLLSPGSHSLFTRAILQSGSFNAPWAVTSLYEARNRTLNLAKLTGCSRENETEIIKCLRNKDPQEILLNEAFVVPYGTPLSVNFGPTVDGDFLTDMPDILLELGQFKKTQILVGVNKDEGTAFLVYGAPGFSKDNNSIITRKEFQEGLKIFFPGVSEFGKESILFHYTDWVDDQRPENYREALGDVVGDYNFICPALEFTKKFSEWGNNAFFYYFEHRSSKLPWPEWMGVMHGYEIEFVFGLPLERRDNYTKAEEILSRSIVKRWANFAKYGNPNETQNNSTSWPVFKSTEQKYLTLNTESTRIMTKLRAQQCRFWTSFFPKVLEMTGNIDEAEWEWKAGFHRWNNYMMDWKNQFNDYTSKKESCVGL
T3 sequence (P81908 whole entry): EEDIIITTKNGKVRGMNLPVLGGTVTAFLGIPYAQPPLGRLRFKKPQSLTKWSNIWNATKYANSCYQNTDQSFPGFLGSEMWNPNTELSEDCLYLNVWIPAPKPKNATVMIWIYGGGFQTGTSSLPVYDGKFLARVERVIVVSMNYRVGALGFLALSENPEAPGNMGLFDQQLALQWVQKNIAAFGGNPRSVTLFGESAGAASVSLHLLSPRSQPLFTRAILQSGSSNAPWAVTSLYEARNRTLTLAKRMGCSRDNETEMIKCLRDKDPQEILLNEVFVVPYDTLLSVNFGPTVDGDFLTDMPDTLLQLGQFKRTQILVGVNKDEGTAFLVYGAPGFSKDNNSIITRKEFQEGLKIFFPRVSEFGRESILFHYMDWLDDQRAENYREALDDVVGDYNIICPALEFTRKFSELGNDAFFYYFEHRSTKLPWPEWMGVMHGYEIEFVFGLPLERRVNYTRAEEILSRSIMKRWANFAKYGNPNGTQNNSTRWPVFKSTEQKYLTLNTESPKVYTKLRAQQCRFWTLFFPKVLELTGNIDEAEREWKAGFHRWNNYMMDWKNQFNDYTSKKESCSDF
T2 sequence (O42275 whole entry): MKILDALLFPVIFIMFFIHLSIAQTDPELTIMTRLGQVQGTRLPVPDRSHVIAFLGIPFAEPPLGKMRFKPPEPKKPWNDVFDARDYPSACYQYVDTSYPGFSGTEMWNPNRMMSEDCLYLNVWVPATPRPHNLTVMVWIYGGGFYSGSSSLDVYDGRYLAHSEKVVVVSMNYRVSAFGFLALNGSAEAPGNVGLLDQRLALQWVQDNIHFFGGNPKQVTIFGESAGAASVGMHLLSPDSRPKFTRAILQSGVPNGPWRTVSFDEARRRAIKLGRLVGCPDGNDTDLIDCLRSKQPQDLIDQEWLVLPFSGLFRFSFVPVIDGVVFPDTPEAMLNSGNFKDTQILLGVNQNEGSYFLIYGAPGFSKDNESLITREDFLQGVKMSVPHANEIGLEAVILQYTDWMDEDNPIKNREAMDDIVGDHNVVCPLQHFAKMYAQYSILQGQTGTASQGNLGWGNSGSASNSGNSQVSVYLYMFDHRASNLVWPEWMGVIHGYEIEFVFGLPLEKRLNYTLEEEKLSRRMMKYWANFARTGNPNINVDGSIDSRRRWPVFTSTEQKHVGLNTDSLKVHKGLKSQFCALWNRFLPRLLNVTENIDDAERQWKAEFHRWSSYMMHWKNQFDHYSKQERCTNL
T1 sequence (P22303 whole entry): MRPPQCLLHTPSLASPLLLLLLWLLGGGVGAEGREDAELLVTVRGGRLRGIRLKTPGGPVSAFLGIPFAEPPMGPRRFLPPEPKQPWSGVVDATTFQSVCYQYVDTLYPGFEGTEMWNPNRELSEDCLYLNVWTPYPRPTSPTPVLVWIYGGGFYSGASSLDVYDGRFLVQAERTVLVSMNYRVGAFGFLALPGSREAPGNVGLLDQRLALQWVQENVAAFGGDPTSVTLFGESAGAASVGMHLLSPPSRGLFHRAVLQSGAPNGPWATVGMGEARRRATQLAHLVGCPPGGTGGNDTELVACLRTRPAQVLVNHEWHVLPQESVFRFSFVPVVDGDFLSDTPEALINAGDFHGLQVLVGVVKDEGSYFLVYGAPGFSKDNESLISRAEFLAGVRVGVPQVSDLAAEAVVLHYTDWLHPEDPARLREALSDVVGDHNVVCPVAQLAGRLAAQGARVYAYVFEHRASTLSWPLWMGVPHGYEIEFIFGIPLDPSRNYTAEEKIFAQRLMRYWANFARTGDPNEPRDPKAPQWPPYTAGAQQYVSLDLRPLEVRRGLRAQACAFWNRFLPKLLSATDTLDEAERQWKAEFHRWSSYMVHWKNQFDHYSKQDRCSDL
T5 sequence (P05067 whole entry): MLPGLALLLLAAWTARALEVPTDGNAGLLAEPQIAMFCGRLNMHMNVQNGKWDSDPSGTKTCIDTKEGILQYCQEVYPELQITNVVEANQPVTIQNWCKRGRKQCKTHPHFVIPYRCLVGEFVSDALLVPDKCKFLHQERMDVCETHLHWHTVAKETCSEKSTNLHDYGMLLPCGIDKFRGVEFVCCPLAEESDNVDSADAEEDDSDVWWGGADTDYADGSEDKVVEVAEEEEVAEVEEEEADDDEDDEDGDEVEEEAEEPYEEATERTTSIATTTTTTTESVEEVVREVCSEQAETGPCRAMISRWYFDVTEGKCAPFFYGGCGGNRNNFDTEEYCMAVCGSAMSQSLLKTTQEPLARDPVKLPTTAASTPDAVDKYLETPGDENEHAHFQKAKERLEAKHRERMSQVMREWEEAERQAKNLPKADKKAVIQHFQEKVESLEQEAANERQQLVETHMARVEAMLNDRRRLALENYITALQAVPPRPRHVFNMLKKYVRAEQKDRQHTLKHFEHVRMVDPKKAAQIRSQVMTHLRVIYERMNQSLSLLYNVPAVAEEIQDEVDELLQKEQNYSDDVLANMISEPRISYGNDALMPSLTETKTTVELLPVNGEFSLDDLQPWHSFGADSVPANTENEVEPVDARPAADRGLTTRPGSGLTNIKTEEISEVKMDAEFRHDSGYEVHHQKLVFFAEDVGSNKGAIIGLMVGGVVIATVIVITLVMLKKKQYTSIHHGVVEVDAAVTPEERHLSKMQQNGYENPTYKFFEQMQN
Chain of Cyclin-dependent kinase 5 (Q00535 whole entry): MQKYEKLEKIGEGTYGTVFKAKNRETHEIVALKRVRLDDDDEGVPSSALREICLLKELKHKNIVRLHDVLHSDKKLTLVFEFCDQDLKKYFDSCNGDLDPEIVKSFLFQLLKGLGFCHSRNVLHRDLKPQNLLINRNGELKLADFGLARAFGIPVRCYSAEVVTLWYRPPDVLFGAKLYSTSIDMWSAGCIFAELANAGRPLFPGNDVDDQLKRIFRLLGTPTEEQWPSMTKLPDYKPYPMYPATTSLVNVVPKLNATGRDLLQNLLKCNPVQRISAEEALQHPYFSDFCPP
Chain of Cyclin-dependent kinase 1 (P06493 whole entry): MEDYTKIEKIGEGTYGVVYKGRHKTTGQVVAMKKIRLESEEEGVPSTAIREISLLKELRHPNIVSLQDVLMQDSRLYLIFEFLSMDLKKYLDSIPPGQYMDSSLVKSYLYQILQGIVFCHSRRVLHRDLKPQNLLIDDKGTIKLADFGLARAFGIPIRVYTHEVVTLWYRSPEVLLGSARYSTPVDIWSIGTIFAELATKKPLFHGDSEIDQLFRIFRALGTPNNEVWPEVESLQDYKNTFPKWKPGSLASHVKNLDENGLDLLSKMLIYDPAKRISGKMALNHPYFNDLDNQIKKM

Molecule `c1cc2c(cc1OCCCN1CCCCC1)CN1CCCCCC1=N2` has an IC50 (Acetylcholinesterase [1]) of 0.82 µM, an IC50 (Acetylcholinesterase [2]) of 0.043 µM and an IC50 (Cholinesterase [3]) of 0.0127 µM. For the same molecule, the Ratio IC50 [4] was 0.296.
With `c1ccc2c(c1)CN1Cc3cc(OCCCN4CCCCC4)ccc3N=C21` the IC50 (Acetylcholinesterase [1]) was 0.142 µM, the IC50 (Acetylcholinesterase [2]) was 0.0069 µM and the IC50 (Cholinesterase [3]) was 4.14 µM. It also gave a Ratio IC50 [4] of 600.
In the case of `COc1cc2c(Nc3ccc(C(=O)/C=C/c4nc(C)c(C)nc4C)cc3)ncnc2c(OC)c1OC`, the IC50 (Acetylcholinesterase [5]) is reported as 0.1 µM, the IC50 (Cholinesterase [6]) is reported as 22.4 µM and the IC50 [7] is reported as 26.7 µM. It also gave an IC50 [8] of 47.4 µM.
`Cn1cc(CN(C(=O)CCCN2C(N)=Nc3ccc(Oc4ccccc4)cc3C2CC2CCCCC2)C2CCCCC2)cn1` (stereo unspecified) gave an IC50 (Beta-secretase 1 [9]) of 0.14 µM, an IC50 (Beta-secretase 1 [10]) of 0.49 µM and an IC50 (SH-SY5Y [11]) of 11.8 µM.
Molecule `CN1C(=O)C2(Nc3cc(Cl)ccc3-c3ccnn32)c2cc(Cl)ccc21` (stereo unspecified) has an IC50 (Acetylcholinesterase [12]) of 88.2 µM and an IC50 (Cholinesterase [13]) of 219 µM.
Molecule `O=C(O)c1cc2c3cc(-n4cnnc4)c(Cl)cc3[nH]c(=O)n2n1` has an IC50 [14] of 5.5 µM.
`CC(C)CC1(CC(C)C)NC(=O)c2ccccc2N1Cc1ccccc1` showed an IC50 (Cholinesterase [15]) of 2.48 µM and a Ratio IC50 [16] of 3.1.
With `Cn1c(N/N=C/c2cccc(Cl)c2Cl)nc2ccccc2c1=O` the IC50 [17] was over 100 µM.
With `O=c1c2cccc(Cl)c2[nH]c(=S)n1-c1c(F)cccc1F` the IC50 [18] was 6.1 µM.
`c1cc2c(cc1OCCCN1CCCCC1)CN1CCCCC1=N2` gave an IC50 (Acetylcholinesterase [1]) of 0.225 µM, an IC50 (Acetylcholinesterase [2]) of 0.0333 µM and an IC50 (Cholinesterase [3]) of 0.00655 µM. It also gave a Ratio IC50 [4] of 0.197.
In the case of `CSc1nc2nc(N/N=C/c3cccnc3)c3ccccc3n2n1`, the inhibition [19] is reported as 62%.
`CSc1nc2nc(NNC(=S)NC3CCCCC3)c3ccccc3n2n1` showed an inhibition [19] of 91.2%.
With `O=C(NCCc1ccc(O)cc1)C1CCC2=Nc3ccc(Br)cc3CN21` (stereo unspecified) the viability at 100 µM (SH-SY5Y [20]) was 78.6%.
Molecule `O=Cc1ccn(-c2cc3c(cc2Cl)nc(O)n2nc(C(=O)O)cc32)c1` has an IC50 [14] of 5.1 µM.
For `O=c1c2ccccc2nc2n1C(c1cncc3[nH]c4ccccc4c13)CC2O` (stereo unspecified), the IC50 (Acetylcholinesterase [21]) was 70.5 µM and the IC50 (Cholinesterase [13]) was 18.2 µM.
Work on `O=c1[nH]c(CCCO)nc2ccccc12` yielded an IC50 (Acetylcholinesterase [21]) of 155 µM and an IC50 (Cholinesterase [13]) of 105 µM.
In the case of `COc1cc(/C=C/c2nc3cc(Cl)ccc3c(=O)[nH]2)ccc1-n1cnc(C)c1`, the IC50 [22] is reported as over 10 µM and the IC50 [23] is reported as 0.66 µM.
Molecule `O=c1c2ccccc2nc2n1CC[C@@H]2[C@@H]1CCCN1` has an IC50 (Acetylcholinesterase [24]) of 5.71 µM and an IC50 (Cholinesterase [13]) of over 500 µM.
`CSc1nc2ccccc2c(=O)n1-c1c(F)cccc1F` showed an IC50 (Phosphodiesterase 4) of 3.5 µM and an IC50 [25] of 3.5 µM.
Molecule `O=c1c2ccccc2nc2n1CCC2O` (stereo unspecified) has an IC50 (Acetylcholinesterase [21]) of 76.6 µM and an IC50 (Cholinesterase [13]) of 10.2 µM.
`c1ccc2c(c1)CCN1Cc3cc(OCCCN4CCCCC4)ccc3N=C21` showed an IC50 (Acetylcholinesterase [1]) of 0.216 µM, an IC50 (Acetylcholinesterase [2]) of 0.0055 µM and an IC50 (Cholinesterase [3]) of 0.955 µM. The Ratio IC50 [4] was 174.
`Cn1c(N/N=C/c2ccc(O)cc2O)nc2ccccc2c1=O` gave an IC50 (Beta-secretase 1 [26]) of 27.6 µM and an IC50 [17] of 8.4 µM.
Molecule `COC(=N)c1nc2ccc3ncnc(Nc4ccc5c(c4)OCO5)c3c2s1` has an IC50 [27] of over 10 µM, an IC50 [28] of over 10 µM and an IC50 [29] of 0.66 µM.
